Earlier results, collected in patent US20220378840A1, “COMPOSITIONS, KITS AND METHODS FOR STORAGE OF BLOOD PRODUCTS AND METHODS OF USE THEREOF” (Rutgers, The State University of New Jersey, priority 2019, published 2022).

Experiments:
RBCs [1] = details: prolonged incubation in 3% L-carnitine
RBCs [2] = details: 6% concentration L-carnitine
hemorrhagic shock = details: 6% concentration HES
cells = details: 6% concentration HES

Row | Molecule | toxicity on prolonged incubation (RBCs [1]) | recovery of RBCs (RBCs [2]) | oxidative stress and inflammatory response in hemorrhagic shock (hemorrhagic shock) | cell survival during freezing and thawing (cells)
1 | C[N+](C)(C)C[C@H](O)CC(=O)[O-] [L-carnitine] | non-toxic | 80% | – | –
2 | Hydroxyethyl starch [HES] | – | – | reduces oxidative stress and inflammatory response | improves cell survival
